Results on two compounds are retold here after US11058744B2, “Composition for treating prostate cancer” (GemVax & KAEL Co., Ltd., priority 2013, dated 2021).

Molecules are shown by their SMILES.

The subject of one test is prostate cancer. To be noted: administered together with docetaxel; Henly et al 2012; cited from earlier work.
Test [1] has as its system prostate cancer having a hormone tolerance. To be noted: Beer et al, 2001; cited from earlier work.
For the next test, the system named is LNCaP cell line. Briefly: Transwell migration assay on LNCaP cell line. Format: cell-based, human. The conditions noted are these: medium containing docetaxel (3 nM), no Pep1. The method, then:
The effects of Pep1 on cancer cell migration were evaluated by trans-well assay.
The cancer cell migration was evaluated by using the reagents and materials and the cell line incubation method which are described in connection with Example 1. A migration assay method used for this experiment is as follows.
The LNCaP cell line was incubated on a 6-well plate overnight, and then treated with various concentrations of Pep1 (0, 1, 10, 30 μM) and incubated for 24 hours. Thereafter, the resultant LNCaP cell line was seeded at the cell population of 1×10^4/well on a trans-well plate. Three hours after, the upper compartment of each well was removed, and cells that had migrated downwards were immobilized, stained, and quantified.
A separate experiment was further performed to identify cell migration when Pep1 was co-administered with docetaxel. The LNCaP cell line was incubated on a 6-well plate overnight, and then, treated with various concentrations of Pep1(0, 1, 3, 10, and 30 μM) and incubated for 24 hours. Additionally, the cell line was incubated in a growth medium containing docetaxel (3 nM) for 48 hours, and then, seeded on a trans-well plate at a cell population of 1×10^4/well. Three hours after, the upper compartment of each well was removed, and cells that had migrated downwards were immobilized, stained, and quantified. […]

Turning to `Nc1cccc2c1CN(C1CCC(=O)NC1=O)C2=O` (stereo not drawn) [lenalidomide], the anti-cancer effects result in the test with prostate cancer is given as “anti-cancer effects are significantly increased”.
In the case of `CC(=O)O[C@@]12CO[C@@H]1C[C@H](O)[C@@]1(C)C(=O)[C@H](O)C3=C(C)[C@@H](OC(=O)[C@H](O)[C@@H](NC(=O)OC(C)(C)C)c4ccccc4)C[C@@](O)([C@@H](OC(=O)c4ccccc4)[C@H]21)C3(C)C` [docetaxel], the treatment efficiency entry in test [1] was “about 40%”. Besides, in the test with LNCaP cell line, the “cancer cell migration (migrated cell number)” value is “the cancer cell migration was increased”.
